Tests used:
Type in all cases: functional
[1] = test system: CAKI-1; test: Growth inhibition of human CAKI-1 cells assessed as cell growth at 1 uM incubated for 48 hrs by sulforhodamine B assay relative to control; conditions: read-out: Activity
[2] = test system: SW-620; test: Growth inhibition of human SW-620 cells assessed as cell growth at 1 uM incubated for 48 hrs by sulforhodamine B assay relative to control; conditions: read-out: Activity
[3] = test system: HT-29; test: Growth inhibition of human HT-29 cells incubated for 48 hrs by sulforhodamine B assay
[4] = test system: HCT-116; test: Growth inhibition of human HCT-116 cells assessed as cell growth at 0.1 uM incubated for 48 hrs by sulforhodamine B assay relative to control; conditions: read-out: Activity
[5] = test system: UACC-257; test: Growth inhibition of human UACC-257 cells assessed as cell growth at 100 uM incubated for 48 hrs by sulforhodamine B assay relative to control; conditions: read-out: Activity
[6] = test system: MDA-MB-435; test: Growth inhibition of human MDA-MB-435 cells assessed as cell growth at 100 uM incubated for 48 hrs by sulforhodamine B assay relative to control; conditions: read-out: Activity
[7] = test system: SF-295; test: Growth inhibition of human SF-295 cells assessed as cell growth at 100 uM incubated for 48 hrs by sulforhodamine B assay relative to control; conditions: read-out: Activity
[8] = test system: MDA-MB-435; test: Growth inhibition of human MDA-MB-435 cells assessed as cell growth at 0.01 uM incubated for 48 hrs by sulforhodamine B assay relative to control; conditions: read-out: Activity
[9] = test system: BT-549; test: Growth inhibition of human BT-549 cells assessed as cell growth at 100 uM incubated for 48 hrs by sulforhodamine B assay relative to control; conditions: read-out: Activity
[10] = test system: SN12C; test: Growth inhibition of human SN12C cells assessed as cell growth at 0.1 uM incubated for 48 hrs by sulforhodamine B assay relative to control; conditions: read-out: Activity
[11] = test system: 786-0; test: Growth inhibition of human 786-0 cells assessed as cell growth at 0.1 uM incubated for 48 hrs by sulforhodamine B assay relative to control; conditions: read-out: Activity
[12] = test system: MDA-MB-468; test: Growth inhibition of human MDA-MB-468 cells assessed as cell growth at 0.01 uM incubated for 48 hrs by sulforhodamine B assay relative to control; conditions: read-out: Activity
[13] = test system: SNB-19; test: Growth inhibition of human SNB-19 cells assessed as cell growth at 0.01 uM incubated for 48 hrs by sulforhodamine B assay relative to control; conditions: read-out: Activity
[14] = test system: CCRF-CEM; test: Growth inhibition of human CCRF-CEM cells assessed as cell growth at 0.01 uM incubated for 48 hrs by sulforhodamine B assay relative to control; conditions: read-out: Activity
[15] = test system: U-251; test: Growth inhibition of human U-251 cells assessed as cell growth at 0.01 uM incubated for 48 hrs by sulforhodamine B assay relative to control; conditions: read-out: Activity
[16] = test system: Malme-3M; test: Growth inhibition of human Malme-3M cells assessed as cell growth at 1 uM incubated for 48 hrs by sulforhodamine B assay relative to control; conditions: read-out: Activity
[17] = test system: MDA-MB-468; test: Growth inhibition of human MDA-MB-468 cells incubated for 48 hrs by sulforhodamine B assay
[18] = test system: UACC-257; test: Growth inhibition of human UACC-257 cells assessed as cell growth at 1 uM incubated for 48 hrs by sulforhodamine B assay relative to control; conditions: read-out: Activity
[19] = test system: NCI-H522; test: Growth inhibition of human NCI-H522 cells assessed as cell growth at 1 uM incubated for 48 hrs by sulforhodamine B assay relative to control; conditions: read-out: Activity
[20] = test system: MDA-MB-231; test: Growth inhibition of human MDA-MB-231 cells assessed as cell growth at 100 uM incubated for 48 hrs by sulforhodamine B assay relative to control; conditions: read-out: Activity
[21] = test system: KM12; test: Growth inhibition of human KM12 cells assessed as cell growth at 0.1 uM incubated for 48 hrs by sulforhodamine B assay relative to control; conditions: read-out: Activity
[22] = test system: M14; test: Growth inhibition of human M14 cells assessed as cell growth at 0.01 uM incubated for 48 hrs by sulforhodamine B assay relative to control; conditions: read-out: Activity
[23] = test system: UO-31; test: Growth inhibition of human UO-31 cells assessed as cell growth at 100 uM incubated for 48 hrs by sulforhodamine B assay relative to control; conditions: read-out: Activity
[24] = test system: Hs-578T; test: Growth inhibition of human Hs-578T cells assessed as cell growth at 0.1 uM incubated for 48 hrs by sulforhodamine B assay relative to control; conditions: read-out: Activity
[25] = test system: NCI-H522; test: Growth inhibition of human NCI-H522 cells assessed as cell growth at 0.1 uM incubated for 48 hrs by sulforhodamine B assay relative to control; conditions: read-out: Activity
[26] = test system: SF-295; test: Growth inhibition of human SF-295 cells incubated for 48 hrs by sulforhodamine B assay
[27] = test system: UO-31; test: Growth inhibition of human UO-31 cells assessed as cell growth at 0.1 uM incubated for 48 hrs by sulforhodamine B assay relative to control; conditions: read-out: Activity
[28] = test system: MDA-MB-468; test: Growth inhibition of human MDA-MB-468 cells assessed as cell growth at 1 uM incubated for 48 hrs by sulforhodamine B assay relative to control; conditions: read-out: Activity
[29] = test system: NCI-H522; test: Growth inhibition of human NCI-H522 cells incubated for 48 hrs by sulforhodamine B assay
[30] = test system: SK-MEL-5; test: Growth inhibition of human SK-MEL-5 cells assessed as cell growth at 0.1 uM incubated for 48 hrs by sulforhodamine B assay relative to control; conditions: read-out: Activity
[31] = test system: LOX IMVI; test: Growth inhibition of human LOX IMVI cells assessed as cell growth at 0.1 uM incubated for 48 hrs by sulforhodamine B assay relative to control; conditions: read-out: Activity
[32] = test system: SNB-75; test: Growth inhibition of human SNB-75 cells assessed as cell growth at 0.1 uM incubated for 48 hrs by sulforhodamine B assay relative to control; conditions: read-out: Activity
[33] = test system: A498; test: Growth inhibition of human A498 cells incubated for 48 hrs by sulforhodamine B assay
[34] = test system: T47D; test: Growth inhibition of human T47D cells incubated for 48 hrs by sulforhodamine B assay
[35] = test system: SK-MEL-28; test: Growth inhibition of human SK-MEL-28 cells incubated for 48 hrs by sulforhodamine B assay
[36] = read-out: LC50 (the source's name)
[37] = read-out: pLC50 (the source's name) (converted)

CC(=O)Nc1cc(CO[Si](C)(C)C(C)(C)C)cc(NC(=O)c2ccc(C(=O)Nc3cccc(NC(=O)CCCN(C)C)c3)cc2)c1
94%: growth at 1 µM [16] | growth at 0.1 µM [27] | growth at 0.1 µM [31]
> 75.9 µM: GI50 ([3]; read-out: pGI50 (converted)) | CC50 [3, 37] | TGI ([3]; read-out: pTGI) | GI50 ([17]; read-out: pGI50 (converted)) | CC50 [17, 37] | TGI ([17]; read-out: pTGI) | GI50 ([26]; read-out: pGI50 (converted)) | LC50 ([26]; read-out: pLC50 (converted)) | TGI ([26]; read-out: pTGI) | GI50 ([29]; read-out: pGI50 (converted)) | CC50 [29, 37] | TGI ([29]; read-out: pTGI) | LC50 (concentration giving 50% net cell kill) ([33]; read-out: pLC50 (converted)) | TGI ([33]; read-out: pTGI) | GI50 ([34]; read-out: pGI50 (converted)) | CC50 [34, 37] | TGI ([34]; read-out: pTGI) | GI50 ([35]; read-out: pGI50 (converted)) | LC50 (50% lethal concentration) ([35]; read-out: pLC50 (converted)) | TGI ([35]; read-out: pTGI)
90%: growth at 1 µM [28]
91%: growth at 0.1 µM [25]
73%: growth at 1 µM [1]
86%: growth at 100 µM [9] | growth at 1 µM [19]
121%: growth at 0.1 µM [24]
93%: growth at 0.1 µM [11] | growth at 0.01 µM [12]
83%: growth at 0.1 µM [32]
88%: growth at 100 µM [6] | growth at 100 µM [7]
89%: growth at 1 µM [18] | growth at 100 µM [23]
> 75 µM: GI50 ([3]; read-out: GI50) | CC50 [3, 36] | TGI ([3]; read-out: TGI) | GI50 ([17]; read-out: GI50) | CC50 [17, 36] | TGI ([17]; read-out: TGI) | GI50 ([26]; read-out: GI50) | LC50 ([26]; read-out: LC50) | TGI ([26]; read-out: TGI) | GI50 ([29]; read-out: GI50) | CC50 [29, 36] | TGI ([29]; read-out: TGI) | LC50 (concentration giving 50% net cell kill) ([33]; read-out: LC50) | TGI ([33]; read-out: TGI) | GI50 ([34]; read-out: GI50) | CC50 [34, 36] | TGI ([34]; read-out: TGI) | GI50 ([35]; read-out: GI50) | LC50 (50% lethal concentration) ([35]; read-out: LC50) | TGI ([35]; read-out: TGI)
81%: growth at 100 µM [5]
95%: growth at 0.1 µM [10]
100%: growth at 1 µM [2] | growth at 0.1 µM [21]
99%: growth at 0.1 µM [4]
97%: growth at 0.01 µM [14] | growth at 0.01 µM [22] | growth at 0.1 µM [30]
101%: growth at 0.01 µM [15]
96%: growth at 0.01 µM [13] | growth at 100 µM [20]
98%: growth at 0.01 µM [8]
